In patent US8003660B2, “Modulators of muscarinic receptors” (Vertex Pharmaceuticals Incorporated, priority 2006, dated 2011):
Like-named read-outs stand apart in the source and are kept apart here.

Columns and labels:
Assay type in all cases: cell-based
M1 muscarinic receptor = target: T1, M1 muscarinic receptor (Homo sapiens, UniProt P11229); assay: Functional mobilization of intracellular calcium (FLIPR) in CHO cells expressing M1; settings: for EC50: CHO cells expressing M1, FLIPR calcium; for Emax: CHO; for M1 Activity: CHO cells expressing M1, FLIPR calcium assay
T1 construct: expressed in transfected cells; host or cells: CHO (M1-CHO)
T1 sequence (P11229 1-460): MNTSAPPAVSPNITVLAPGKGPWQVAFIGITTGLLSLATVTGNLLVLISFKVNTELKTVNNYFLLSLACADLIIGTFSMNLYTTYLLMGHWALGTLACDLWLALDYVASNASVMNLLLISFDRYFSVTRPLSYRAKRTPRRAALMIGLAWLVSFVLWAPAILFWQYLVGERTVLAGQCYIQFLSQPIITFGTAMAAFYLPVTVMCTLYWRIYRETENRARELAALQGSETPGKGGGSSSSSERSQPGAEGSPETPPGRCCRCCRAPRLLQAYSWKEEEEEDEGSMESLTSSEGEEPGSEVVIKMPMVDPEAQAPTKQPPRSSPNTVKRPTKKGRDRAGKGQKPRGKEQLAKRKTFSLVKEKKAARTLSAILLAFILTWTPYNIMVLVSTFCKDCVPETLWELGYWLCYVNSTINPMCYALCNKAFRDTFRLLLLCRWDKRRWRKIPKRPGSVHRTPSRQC
Description: (§1) Functional Mobilization of Intracellular Calcium to Determine Muscarinic Receptor Activity:
(§2) CHO cells expressing muscarinic receptors (M1 to M5) are grown as monolayers in tissue culture flasks at 37° C. in a humidified atmosphere containing 5% CO2 and passaged every 3-5 days. The growth media is Dulbecco's modified eagles medium (DMEM, Gibco Cat# 12430-054), containing 25 mM Hepes and supplemented with Fetal Bovine Serum (Hyclone, cat# SH30071.03), 0.1 mM of MEM non-essential amino acids (GIBCO, Cat# 11140-050), 1 mM MEM Sodium Pyruvate (GIBCO Cat# 11360-070) and 100 units/ml of Penicillin G and 100 μg/ml of Streptomycin (GIBCO Cat# 15140-122). The recombinant muscarinic receptor cell lines are grown under antibiotic pressure with media containing 25 μg/ml zeocin and 500 μg/ml G418 (M1-CHO), 4 μg/ml puromycin, 50 μg/ml zeocin and 2.5 μg/ml blasticidin (M2 and M4-CHO) or 50 μg/ml zeocin and 4 μg/ml puromycin (M3 and M5-CHO).
(§3) Cells are harvested at 80-90% confluence using Versene (GIBCO Cat# 15040-066), collected by centrifugation and seeded 18-24 hrs prior to running the calcium assay at a density of 5,000-10,000 cells/well in […], clear-bottomed 384-well plates (BD Biocoat, poly-D-lysine, Cat#356663). The day of the experiment, the cells are washed with a plate washer (Bioteck Instruments, ELX 405) using bath 1 buffer (140 mM NaCl, 4,5 mM KCl, 2 mM CaCl2, 1 mM MgCl2, 10 mM Hepes-Na, 10 mM Glucose, pH 7.4, with NaOH) containing 1 mM Probenecid. Next, the calcium dye Fluo-3 (25 μl/well of Fluo-3 AM at 4 μM, Molecular Probes F-1241, in Bath 1 buffer containing 1 mM Probenecid) is added to the 25 μl of Bath 1 remaining in each well after the plate wash and the dye is loaded at 37° C. in the tissue culture incubator for 60-90 min. The fluorescent dye is removed using the plate washer with Bath 1 containing 1 mM Probenecid, leaving 25 μl/well of this solution after the wash. Alternatively, cells can be loaded with the calcium indicator from Molecular Devices (Calcium 3 Assay Reagents, Cat #R7181) adding 5 μl of a 5× solution dye in Bath 1 containing 1 mM Probenecid (10 ml per dye flask cat#R7182 to generate a solution […]) to 20 μl of the same buffer. After loading for 60 min, the experiment can be run without having to remove the dye.
(§4) Compounds are prepared at a 2× fold concentration in a 96-well plate (round bottom, Costar Corning cat#3656), by reconstituting the pre-spotted compounds in bath 1 containing 1 mM probenecid. The final concentration DMSO is 0.5%, and the amount of DMSO is normalized across the assay plate. To determine an agonist action of the compounds on muscarinic receptors, the reconstituted compounds are added (25 μl compound/well) to the cell assay plate (containing 25 μl/well) using the multi-channel robotic system of the FLIPR 3 Instrument (Molecular Devices, Sunnyvale, Calif.). To determine a functional inhibitory action of the compounds on muscarinic receptors, the reconstituted compounds are added (25 μl compound/well) to the assay plate and pre-incubated for 15 min prior to adding 25 μl of Carbachol at 3× the EC80 for each muscarinic subtype. Alternatively, the compounds can be co-applied simultaneously with the agonist. In both assay modes, the fluorescence is recorded for 60 sec (excitation wavelength is […] and emission wavelength 540 nm) using the FLIPR 3 instrument.
(§5) The potency, efficacy and selectivity of the muscarinic compounds were evaluated by screening the compound activity across the whole family (M1 to M5 cells). Compounds were also screened for activity on other proteins such as other GPCRs and ion channels to determine selectivity on M4 receptors.

M4 muscarinic receptor = target: T2, M4 muscarinic receptor (Homo sapiens, UniProt P08173); assay: Functional mobilization of intracellular calcium (FLIPR) in CHO cells expressing M4; settings: for EC50: CHO cells expressing M4, FLIPR calcium; for Emax: CHO; for M4 Activity: CHO cells expressing M4, FLIPR calcium assay
T2 construct: expressed in transfected cells; host or cells: CHO (M4-CHO)
T2 sequence (P08173 1-479): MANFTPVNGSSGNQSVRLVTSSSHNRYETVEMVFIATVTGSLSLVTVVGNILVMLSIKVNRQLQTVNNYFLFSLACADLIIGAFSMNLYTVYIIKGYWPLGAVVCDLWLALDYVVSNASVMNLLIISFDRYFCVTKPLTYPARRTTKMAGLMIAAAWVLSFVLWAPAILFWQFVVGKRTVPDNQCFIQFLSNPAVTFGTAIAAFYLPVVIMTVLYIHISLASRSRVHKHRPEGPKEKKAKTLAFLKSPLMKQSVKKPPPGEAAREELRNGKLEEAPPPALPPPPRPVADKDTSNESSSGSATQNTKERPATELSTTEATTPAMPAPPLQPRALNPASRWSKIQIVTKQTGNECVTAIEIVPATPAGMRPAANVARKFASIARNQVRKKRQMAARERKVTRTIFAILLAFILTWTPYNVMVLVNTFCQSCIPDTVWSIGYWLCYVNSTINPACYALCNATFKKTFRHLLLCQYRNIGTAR
Description: as §1, §2, §3, §4, §5

M2 muscarinic receptor = target: T3, M2 muscarinic receptor (Homo sapiens, UniProt P08172); assay: Functional mobilization of intracellular calcium (FLIPR) in CHO cells expressing M2; settings: for EC50: CHO cells expressing M2, FLIPR calcium; for Emax: CHO; for M2 Activity: CHO cells expressing M2, FLIPR calcium assay
T3 construct: expressed in transfected cells; host or cells: CHO (M2-CHO)
T3 sequence (P08172 1-466): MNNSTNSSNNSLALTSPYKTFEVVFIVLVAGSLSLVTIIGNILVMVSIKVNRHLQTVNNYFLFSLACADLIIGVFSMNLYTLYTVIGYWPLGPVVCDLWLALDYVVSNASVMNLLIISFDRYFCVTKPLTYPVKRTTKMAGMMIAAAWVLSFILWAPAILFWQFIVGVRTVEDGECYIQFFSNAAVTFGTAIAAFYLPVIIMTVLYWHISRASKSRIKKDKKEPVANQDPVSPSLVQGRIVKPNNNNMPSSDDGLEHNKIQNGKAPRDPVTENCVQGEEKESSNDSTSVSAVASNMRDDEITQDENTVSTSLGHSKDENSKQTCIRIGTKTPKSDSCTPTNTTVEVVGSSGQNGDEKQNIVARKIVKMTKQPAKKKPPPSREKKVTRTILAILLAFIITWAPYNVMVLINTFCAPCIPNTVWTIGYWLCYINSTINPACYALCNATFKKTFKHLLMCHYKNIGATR
Description: as §1, §2, §3, §4, §5

M3 muscarinic receptor = target: T4, M3 muscarinic receptor (Homo sapiens, UniProt P20309); assay: Functional mobilization of intracellular calcium (FLIPR) in CHO cells expressing M3; settings: for EC50: CHO cells expressing M3, FLIPR calcium; for Emax: CHO; for M3 Activity: CHO cells expressing M3, FLIPR calcium assay
T4 construct: expressed in transfected cells; host or cells: CHO (M3-CHO)
Description: as §1, §2, §3, §4, §5

[1] = 100% = maximum response obtained with the Carbachol control, read-out: M1 Efficacy
[2] = 100% = maximum response obtained with the Carbachol control, read-out: M4 Efficacy
[3] = 100% = maximum response obtained with the Carbachol control, read-out: M2 Efficacy
[4] = 100% = maximum response obtained with the Carbachol control, read-out: M3 Efficacy
[5] = 100% efficacy = maximum response obtained with the Carbachol control
[6] = 100% = maximum response obtained with the Carbachol control

T4 sequence (P20309 whole entry): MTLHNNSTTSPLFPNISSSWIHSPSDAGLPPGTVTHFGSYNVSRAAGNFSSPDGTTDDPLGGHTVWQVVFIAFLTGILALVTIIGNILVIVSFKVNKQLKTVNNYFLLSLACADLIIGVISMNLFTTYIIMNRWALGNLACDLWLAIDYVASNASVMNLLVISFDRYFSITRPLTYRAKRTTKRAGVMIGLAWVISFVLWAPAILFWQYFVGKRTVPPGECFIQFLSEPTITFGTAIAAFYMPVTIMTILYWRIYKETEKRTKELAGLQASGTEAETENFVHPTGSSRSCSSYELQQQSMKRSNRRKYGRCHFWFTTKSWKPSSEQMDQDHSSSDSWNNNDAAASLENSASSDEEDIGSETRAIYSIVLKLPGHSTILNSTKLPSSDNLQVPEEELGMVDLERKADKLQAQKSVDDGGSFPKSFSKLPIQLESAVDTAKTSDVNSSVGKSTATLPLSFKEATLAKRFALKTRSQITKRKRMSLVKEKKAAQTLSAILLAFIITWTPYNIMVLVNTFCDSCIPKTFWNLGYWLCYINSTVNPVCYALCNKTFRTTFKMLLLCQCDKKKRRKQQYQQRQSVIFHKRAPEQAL

SMILES | EC50 (M1 muscarinic receptor) [µM] | Emax (M1 muscarinic receptor; [1]) [%] | EC50 (M4 muscarinic receptor) [µM] | Emax (M4 muscarinic receptor; [2]) [%] | EC50 (M2 muscarinic receptor) [µM] | Emax (M2 muscarinic receptor; [3]) [%] | EC50 (M3 muscarinic receptor) [µM] | Emax (M3 muscarinic receptor; [4]) [%] | M1 Activity (M1 muscarinic receptor) | Emax (M1 muscarinic receptor; [5]) [%] | M4 Activity (M4 muscarinic receptor) | Emax (M4 muscarinic receptor; [5]) [%] | M2 Activity (M2 muscarinic receptor) | Emax (M2 muscarinic receptor; [5]) [%] | M3 Activity (M3 muscarinic receptor) | Emax (M3 muscarinic receptor; [5]) [%] | M1 Efficacy (M1 muscarinic receptor; [6]) | M4 Efficacy (M4 muscarinic receptor; [6]) | M2 Efficacy (M2 muscarinic receptor; [6]) | M3 Efficacy (M3 muscarinic receptor; [6])
Cc1cc(C(=O)N[C@H]2CCC3(CCN(CCC(C)(C)C)CC3)c3cc(F)ccc32)nn1C [compound 2] | < 2 | 25 to 100 | < 2 | 25 to 100 | < 2 | 25 to 100 | > 5 | < 25 | – | – | – | – | – | – | – | – | – | – | – | –
Cn1cnc(C(=O)N[C@@H]2CCC3(CCN(CCC(C)(C)C)CC3)c3cc(F)ccc32)c1 [compound 180] | < 2 | 25 to 100 | < 2 | 25 to 100 | < 2 | 25 to 100 | > 5 | < 25 | – | – | – | – | – | – | – | – | – | – | – | –
CCC(=O)N[C@H]1CCC2(CCN(CCC(C)(C)C)CC2)c2ccccc21 [compound 156] | < 2 | 25 to 100 | < 2 | 25 to 100 | < 2 | 25 to 100 | > 5 | < 25 | – | – | – | – | – | – | – | – | – | – | – | –
COc1cc2c(cc1OC)C1(CCN(C(=O)OC(C)(C)C)CC1)CC2=O [compound 239] | – | – | – | – | – | – | – | – | + (activity was measured to be greater than 5.0 μM) | < 25 | + (activity was measured to be greater than 5.0 μM) | < 25 | + (activity was measured to be greater than 5.0 μM) | < 25 | + (activity was measured to be greater than 5.0 μM) | < 25 | – | – | – | –
CC(C)(C)CCN1CCC2(CC[C@H](N3CCCCC3=O)c3ccccc32)CC1 [compound 57] | 2 to 5 | 25 to 100 | < 2 | 25 to 100 | > 5 | < 25 | > 5 | < 25 | – | – | – | – | – | – | – | – | – | – | – | –
CC(=O)N[C@H](C)C(=O)N[C@@H]1CCC2(CCN(CCC(C)(C)C)CC2)c2cc(F)ccc21 [compound 163] | < 2 | 25 to 100 | < 2 | 25 to 100 | < 2 | 25 to 100 | > 5 | < 25 | – | – | – | – | – | – | – | – | – | – | – | –
C=CCCCN1CCC2(CC1)C[C@H](NC(=O)N1CCCC1)c1ccccc12 [compound 301] | – | – | – | – | – | – | – | – | + (activity was measured to be greater than 5.0 μM) | < 25 | + (activity was measured to be greater than 5.0 μM) | < 25 | + (activity was measured to be greater than 5.0 μM) | < 25 | + (activity was measured to be greater than 5.0 μM) | < 25 | – | – | – | –
CN1CC(C(=O)N[C@H]2CCC3(CCN(CCC(C)(C)C)CC3)c3ccccc32)CC1=O (stereo partly shown) [compound 144] | < 2 | 25 to 100 | < 2 | 25 to 100 | < 2 | 25 to 100 | > 5 | < 25 | – | – | – | – | – | – | – | – | – | – | – | –
CCn1cc(C(=O)N[C@H]2CCC3(CCN(CCC(C)(C)C)CC3)c3ccccc32)cn1 [compound 69] | > 5 | – | < 2 | – | > 5 | – | > 5 | – | – | – | – | – | – | – | – | – | + (efficacy was calculated to be less than 25%) | ++ (efficacy was calculated to be from 100% to 25%) | + (efficacy was calculated to be less than 25%) | + (efficacy was calculated to be less than 25%)
CC(C)(C)CCN1CCC2(CC[C@@H](N3CCCC3=O)c3ccc(F)cc32)CC1 [compound 168] | 2 to 5 | < 25 | < 2 | 25 to 100 | > 5 | < 25 | > 5 | < 25 | – | – | – | – | – | – | – | – | – | – | – | –
CC(C)(C)CCN1CCC2(CC1)C[C@H](NC(=O)c1ccoc1)c1ccccc12 [compound 292] | – | – | – | – | – | – | – | – | + (activity was measured to be greater than 5.0 μM) | < 25 | + (activity was measured to be greater than 5.0 μM) | < 25 | + (activity was measured to be greater than 5.0 μM) | < 25 | + (activity was measured to be greater than 5.0 μM) | < 25 | – | – | – | –
